# Measurements: patent US12345641B2, “Fluorescence quenching immunoassay” (IDEXX Laboratories, Inc., priority 2020, dated 2025)
# How the values were obtained:
# α-Cholic Acid antibody = assay: Fluorescence quenching of CA-Fl with anti-cholic acid antibody in PBS (Example 41); format: binding
# Experimental: A working solution of CA-Fl in PBS (100 nM) was prepared. The working solution was then combined with various equivalents of α-Cholic Acid antibody (1:1, v/v) (commercially available from Fitzgerald Industries of the Netherlands). The fluorescence was measured as a function of the ratio of antibody (Ab) to CA-Fl. The results are depicted in FIG. 33. […] The higher the ratio of antibody to CA-Fl tracer, the greater the amount of quenching.
# anti-SDMA antibody = assay: SDMA dose response with SDMA tracer/SDMA antibody solution (Example 34); format: binding; conditions: SDMA 0 to 100 μg/dL added to SDMA-DFF, SDMA-DCF or SDMA-Fl tracer/antibody solution
# Experimental: Solutions of various SDMA tracers (SDMA-Fl, SDMA-DFF, and SDMA-DCF) in PBS (with 0.1% Tween) were prepared at a concentrations 400 nM. Solutions of anti-SDMA antibody or anti-SDMA antibody conjugated to BHQ10 (4 eq.) in PBS were prepared at concentrations of 400 and 800 nM, respectively.
# SDMA standard solutions were prepared by serially diluting SDMA in PBS (with 0.1% Tween) to provide a final SDMA concentration of 100, 50, 25, 12,5, 6.26, 0 μg/dL.
# 50 μl of each SDMA standard solution was added to the well of a 96-well UV transparent plate. 50 μl of the SDMA tracer/SDMA antibody solution was then added to each well, the resulting solution mixed well by shaking, and incubated at room temperature for 30 min.
SMILES,fluorescence quenching on complex formation with α-Cholic Acid antibody (α-Cholic Acid antibody),fluorescence intensity as a function of SDMA concentration (anti-SDMA antibody)
"C[C@H](CCC(=O)NCc1c(O)ccc2c(-c3ccccc3C(=O)O)c3ccc(=O)cc-3oc12)[C@H]1CC[C@H]2[C@@H]3[C@H](O)C[C@@H]4C[C@H](O)CC[C@]4(C)[C@H]3C[C@H](O)[C@]12C [CA-Fl, Cholic Acid-Fluorescein Conjugate]",quenched,
"C/N=C(\NC)NCCC[C@H](N)C(=O)O [SDMA, symmetrical dimethylarginine]",,a dose response is observed
